Laboratory results from US7410655B2, “Anticancer agent” (Nobel Limited Liability Company, priority 2001, dated 2008).

Tested on: PA-23 rhabdomyosarcoma
Test: PA-23 rhabdomyosarcoma lung metastases after inoculation in the caudal vein of rats
Format: in vivo
Conditions: Example 2; 0.003 mg/ml in sodium chloride isotonic solution
Method: The preparation anti-tumor action was tested on female white rats.
The PA-23 rhabdomyosarcoma cell suspension was inoculated in the caudal vein of all rats, being generally used as a model for investigating the ability of such preparations to inhibit stroma development, which is characteristic of most malignant tumors.
All the animals were divided into 5 groups. On the following day after the inoculation a physiological solution was intra-abdominal injected into the rats of Group 1 (0.5 ml per animal); 0.1 ml of the preparation—into the rats of Group 2, 0.3 ml of the preparation—into the rats of Group 3; 0.5 ml of the preparation—into the rats of Group 4; and 0.8 ml of the preparation—into the rats of Group 5. Prior to administration the preparation had been diluted with a physiological solution in the ratio of 1 to 10.
Subsequent administration of the preparation […] was carried out every third day. On the 20 th day following the tumoral inoculation the rats were destroyed. Their bodies were dissected, the number of metastases in their lungs calculated and their respective weight determined by means of analytical balance weighing.
As in Example 1, the PA-23 rhabdomyosarcomas were used as a model. Tumoral inoculation was performed in a similar way. The laboratory animals were also divided into groups. The sodium chloride isotonic solution was injected into Group 1 (control), potassium tetrachloroplatinate in the sodium chloride isotonic solution—into Group 2, ammonium lignohumic acid salts in the sodium chloride isotonic solution were injected into Group 3, injections of the proposed preparation diluted with a physiological solution in the ratio of 1 to 10 were given to Group 4.

[Cl][Pt-2]([Cl])([Cl])[Cl].[K+].[K+] [Potassium tetrachloroplatinate solution, potassium tetrachloroplatinate]
Average number of metastases per rat: 33.2 ± 6.2 | Average weight of 1 metastasis: 42.9 ± 4.3 mg | Average weight of 1 metastasis, % of the Control Group: 88.5% | Number of metastases: 531
